# PMC12627627 (Nature Communications, 2025)
# Columns and labels:
# Type in all cases: binding
# R12 domain of RyR1 = target: T1, R12 domain of RyR1 (Homo sapiens, UniProt P21817); assay: ITC, R12 domain of RyR1; conditions: AMP-PCP or ADP alone, without DAN/AZU (Supplementary Fig. 1)
# T1 construct: RyR1 854–1054, RyR2 865–1065, RyR3 853–1053; made in house; host or cells: E. coli BL21 (DE3)
# T1 sequence (P21817 854-1054): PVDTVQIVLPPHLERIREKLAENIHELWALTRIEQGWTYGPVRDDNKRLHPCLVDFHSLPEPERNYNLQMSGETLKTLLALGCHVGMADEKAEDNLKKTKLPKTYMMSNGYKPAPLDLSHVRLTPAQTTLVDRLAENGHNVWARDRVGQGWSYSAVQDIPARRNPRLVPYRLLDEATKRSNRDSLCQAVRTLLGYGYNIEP
# Procedure: (§1) The plasmids were subsequently transformed into E. coli BL21 (DE3) cells (NEB, USA) and cultured in Luria-Bertani (LB) media at 37 °C. Protein expression was induced with 0.4 mM isopropyl β-D-thiogalactoside (IPTG) when the optical density (OD)600 reached ~0.8, followed by incubation at 18 °C for 12 h. The cells were harvested via centrifugation at 5,000 × g for 15 min at 4 °C and homogenized in Buffer A (10 mM HEPES, pH 7.4, 250 mM KCl) supplemented with 25 µg/mL DNaseI, 25 µg/mL lysozyme, 1 mM phenylmethylsulfonyl fluoride (PMSF), and 20 mM imidazole. The homogenate was centrifuged at 12,000 × g for 45 min, and the supernatant was filtered through a syringe filter (0.22 µm).
# (§2) Purified R12 domain protein from the three RyR isoforms, fused with hexahistidine-tagged MBP (HMT-R12) was dialyzed overnight at 4 °C in ITC buffer (200 mM HEPES, pH 7.4, 150 mM KCl). ITC experiments were performed using a PEAQ-ITC instrument (Malvern, UK) at 25 °C with a stirring speed of 750 rpm. […] For the ternary binding experiments, 500 μM or 5 mM AMP-PCP/ADP was preincubated with both the titrants and titrates. […] The data was fit to a one-site fitting model after background buffer subtraction. The RyR1 R12 mutants were generated using a QuikChange mutagenesis kit (Stratagene) according to the manufacturer’s protocol, with primer sequences listed in Supplementary Table 3.
# R12 domain of RyR2 = target: T2, R12 domain of RyR2 (Homo sapiens, UniProt Q92736); assay: ITC, R12 domain of RyR2; conditions: absence or presence of AMP-PCP or ADP
# T2 construct: RyR1 854–1054, RyR2 865–1065, RyR3 853–1053; made in house; host or cells: E. coli BL21 (DE3)
# T2 sequence (Q92736 865-1065): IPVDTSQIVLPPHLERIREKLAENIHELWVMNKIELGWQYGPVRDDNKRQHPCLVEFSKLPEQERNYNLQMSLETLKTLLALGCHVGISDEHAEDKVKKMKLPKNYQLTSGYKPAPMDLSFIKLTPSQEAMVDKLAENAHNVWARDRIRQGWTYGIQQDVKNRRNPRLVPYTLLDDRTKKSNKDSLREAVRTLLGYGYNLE
# Procedure: as §1, §2
# R12 domain of RyR3 = target: T3, R12 domain of RyR3 (Homo sapiens, UniProt Q15413); assay: ITC, R12 domain of RyR3
# T3 construct: RyR1 854–1054, RyR2 865–1065, RyR3 853–1053; made in house; host or cells: E. coli BL21 (DE3)
# T3 sequence (Q15413 853-1053): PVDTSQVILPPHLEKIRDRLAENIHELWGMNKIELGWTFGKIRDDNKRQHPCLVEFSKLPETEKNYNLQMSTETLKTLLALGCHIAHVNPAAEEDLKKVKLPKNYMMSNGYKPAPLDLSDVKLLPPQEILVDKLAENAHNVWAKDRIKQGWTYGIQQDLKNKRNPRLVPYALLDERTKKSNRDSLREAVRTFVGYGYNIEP
# Procedure: as §1, §2
compound,measurement,setting,value
Nc1ncnc2c1ncn2[C@@H]1O[C@H](COP(=O)(O)OP(=O)(O)O)[C@@H](O)[C@H]1O [ADP],binding of nucleotide alone by ITC,R12 domain of RyR1,did not exhibit detectable binding
Nc1ncnc2c1ncn2[C@@H]1O[C@H](COP(=O)(O)OP(=O)(O)CP(=O)(O)O)[C@@H](O)[C@H]1O [AMP-PCP],binding of nucleotide alone by ITC,R12 domain of RyR1,did not exhibit detectable binding
"O=C1CN(/N=C/c2ccc(-c3ccc([N+](=O)[O-])cc3)o2)C(O)=N1 [DAN, Dantrolene]",binding to RyR2 R12 domain by ITC,R12 domain of RyR2,neither DAN nor AZU exhibited detectable binding
same,Kd,R12 domain of RyR3; RyR3 R12 + 500 µM ADP,0.259 ± 0.031 µM
same,No of Sites (N),R12 domain of RyR3; RyR3 R12 + 500 µM ADP,0.461 ± 0.26
same,ΔH,R12 domain of RyR3; RyR3 R12 + 500 µM ADP,-5.53 ± 0.34 kcal/mol
same,−TΔS,R12 domain of RyR3; RyR3 R12 + 500 µM ADP,-3.46 kcal/mol
same,Kd,R12 domain of RyR3; RyR3 R12 + 500 µM AMP-PCP,0.072 ± 0.02 µM
same,No of Sites (N),R12 domain of RyR3; RyR3 R12 + 500 µM AMP-PCP,0.726 ± 0.53
same,ΔH,R12 domain of RyR3; RyR3 R12 + 500 µM AMP-PCP,-8.63 ± 0.14 kcal/mol
same,−TΔS,R12 domain of RyR3; RyR3 R12 + 500 µM AMP-PCP,-1.11 kcal/mol
same,Kd,R12 domain of RyR3; RyR3 R12 + 5 mM ADP,0.06 ± 0.009 µM
same,No of Sites (N),R12 domain of RyR3; RyR3 R12 + 5 mM ADP,0.606 ± 0.23
same,ΔH,R12 domain of RyR3; RyR3 R12 + 5 mM ADP,-8.21 ± 0.75 kcal/mol
same,−TΔS,R12 domain of RyR3; RyR3 R12 + 5 mM ADP,-1.64 kcal/mol
same,Kd,R12 domain of RyR3; RyR3 R12 + 5 mM AMP-PCP,0.026 ± 0.01 µM
same,No of Sites (N),R12 domain of RyR3; RyR3 R12 + 5 mM AMP-PCP,0.842 ± 0.36
same,ΔH,R12 domain of RyR3; RyR3 R12 + 5 mM AMP-PCP,-8.07 ± 0.10 kcal/mol
same,−TΔS,R12 domain of RyR3; RyR3 R12 + 5 mM AMP-PCP,-2.27 kcal/mol
same,No of Sites (N),"R12 domain of RyR3; RyR3 R12, no nucleotide",0.651 ± 0.11
same,ΔH,"R12 domain of RyR3; RyR3 R12, no nucleotide",-80 kcal/mol
same,−TΔS,"R12 domain of RyR3; RyR3 R12, no nucleotide",75.60 kcal/mol
same,Kd,"R12 domain of RyR3; RyR3 R12, no nucleotide, ITC 25 °C",235 ± 122 µM
